Source: paper PMC6522510 (Nature Communications, 2019)

How the values were obtained:
Parameters in all cases: species or system AML cell lines (8); Primary HTS, single concentration about 10 uM, Cell Titer Glo viability; log10 luminescence, per cent inhibition relative to cycloheximide control
Conditions in all cases: 72 h, relative to cycloheximide control, log10 luminescence; inhibitor
[1] = test system: CHRF288-11
[2] = test system: ML-2
[3] = test system: MV4-11
[4] = test system: MOLM-13
[5] = test system: M07e
[6] = test system: CMS
[7] = test system: U937
[8] = test system: CMK

`COc1cccc(-n2ncc3c(N/N=C/c4ccc(F)cc4)ncnc32)c1` [SJ000573219-1, U18028/188/1] was tested, and the CHRF288-11 %inh [1] was -1.076%, the ML-2 %inh [2] was 1.489% and the MV4-11 %inh [3] was -2.52%. For the same molecule, the MOLM-13 %inh [4] was 0.1437%, the M07e %inh [5] was 4.179% and the CMS %inh [6] was 1.318%. The U937 %inh [7] was -0.8072% and the CMK %inh [8] was -2.994%.
With `COc1ccc(-c2cc3c(N)ncnc3o2)cc1` [SJ000573220-1, R6872/65/2] the CHRF288-11 %inh [1] was 23.46%, the ML-2 %inh [2] was 2.103% and the MV4-11 %inh [3] was -2.253%. It also gave an MOLM-13 %inh [4] of 4.813%, an M07e %inh [5] of 10.8% and a CMS %inh [6] of 5.247%. It also gave a U937 %inh [7] of -1.174% and a CMK %inh [8] of 5.591%.
`CN1CCC(n2cnc(-c3ccc(F)cc3)c2-c2ccnc(N)n2)CC1` [SJ000573221-1, JB19236-039E1] gave a CHRF288-11 %inh [1] of 35.57%, an ML-2 %inh [2] of 19.36% and an MV4-11 %inh [3] of 16.49%. For the same molecule, the MOLM-13 %inh [4] was 26.24%, the M07e %inh [5] was 20.04% and the CMS %inh [6] was 5.129%. It also gave a U937 %inh [7] of 13.28% and a CMK %inh [8] of 38.27%.
For `CCn1c(-c2nonc2N)nc2cnc(Oc3cccc(NC(=O)c4ccc(OCCN5CCOCC5)cc4)c3)cc21` [SJ000573222-1, HC204505-099A1], the CHRF288-11 %inh [1] was 16.4%, the ML-2 %inh [2] was 11.73% and the MV4-11 %inh [3] was 34.29%. It also gave an MOLM-13 %inh [4] of 15.66%, an M07e %inh [5] of -2.093% and a CMS %inh [6] of 9.487%. It also gave a U937 %inh [7] of 38.21% and a CMK %inh [8] of 59.96%.
Work on `c1ccc(-c2n[nH]cc2-c2ccnc(-c3ccc(OCCn4ccnc4)cc3)c2)nc1` [SJ000573223-1, FVLN/241/112/1] yielded a CHRF288-11 %inh [1] of 4.882%, an ML-2 %inh [2] of -0.7623% and an MV4-11 %inh [3] of 2.943%. For the same molecule, the MOLM-13 %inh [4] was 3.444%, the M07e %inh [5] was -2.852% and the CMS %inh [6] was -2.708%. For the same molecule, the U937 %inh [7] was -2.834% and the CMK %inh [8] was 2.62%.
For `Fc1ccc(Nc2nccc(-c3c(-c4ccc(C(F)(F)F)cc4)nn4ncccc34)n2)cc1F` [SJ000573224-1, U17838/186/3], the CHRF288-11 %inh [1] was -0.9437%, the ML-2 %inh [2] was 2.7% and the MV4-11 %inh [3] was -1.825%. It also gave an MOLM-13 %inh [4] of -1.248%, an M07e %inh [5] of -1.97% and a CMS %inh [6] of -1.104%. It also gave a U937 %inh [7] of 0.5152% and a CMK %inh [8] of 0.9298%.
`FC(F)(F)c1ccc(-c2nn3ncccc3c2-c2ccnc(Nc3ccc4c(c3)OCCO4)n2)cc1` [SJ000573225-1, U17838/185/2] showed a CHRF288-11 %inh [1] of 13.54%, an ML-2 %inh [2] of 1.234% and an MV4-11 %inh [3] of 7.035%. It also gave an MOLM-13 %inh [4] of -3.312%, an M07e %inh [5] of 2.059% and a CMS %inh [6] of -3.296%. For the same molecule, the U937 %inh [7] was -2.674% and the CMK %inh [8] was -4.267%.
In the case of `COc1cc(C=NNc2ncnc3c2cnn3-c2ccccc2)ccc1O` [SJ000573226-1, U14681/58/1], the CHRF288-11 %inh [1] is reported as 10.72%, the ML-2 %inh [2] is reported as -0.2562% and the MV4-11 %inh [3] is reported as 35.25%. It also gave an MOLM-13 %inh [4] of 3.51%, an M07e %inh [5] of 11.87% and a CMS %inh [6] of 3.107%. For the same molecule, the U937 %inh [7] was 8.322% and the CMK %inh [8] was -0.5633%.
In the case of `CN(C)CCOc1ccc(-c2cc(-c3ccc4c(c3)CCC4=NO)c(-c3ccncc3)o2)cc1` [SJ000573227-1, JS84326-047A1], the CHRF288-11 %inh [1] is reported as 127%, the ML-2 %inh [2] is reported as 66.89% and the MV4-11 %inh [3] is reported as 2.356%. It also gave an MOLM-13 %inh [4] of 21.06%, an M07e %inh [5] of 14.13% and a CMS %inh [6] of 6.225%. For the same molecule, the U937 %inh [7] was 9.989% and the CMK %inh [8] was 15.46%.
Work on `CCc1nccc2c1nc(-c1nonc1N)n2CC` [SJ000573228-1, DW100508-159A1] yielded a CHRF288-11 %inh [1] of 7.841%, an ML-2 %inh [2] of 3.812% and an MV4-11 %inh [3] of 4.392%. It also gave an MOLM-13 %inh [4] of 4.708%, an M07e %inh [5] of -1.816% and a CMS %inh [6] of -0.9805%. The U937 %inh [7] was 6.241% and the CMK %inh [8] was 3.989%.
Work on `Cn1c(-c2nonc2N)nc2cnccc21` [SJ000573229-1, SD100950-025A1] yielded a CHRF288-11 %inh [1] of 1.476%, an ML-2 %inh [2] of 1.359% and an MV4-11 %inh [3] of 1.313%. It also gave an MOLM-13 %inh [4] of 0.5998%, an M07e %inh [5] of -6.783% and a CMS %inh [6] of 2.573%. For the same molecule, the U937 %inh [7] was 2.832% and the CMK %inh [8] was 8.868%.
Molecule `COc1ccc(-c2nn3ncccc3c2-c2ccnc(Nc3ccc(F)c(F)c3)n2)cc1` [SJ000573231-1, U17838/182/3] has a CHRF288-11 %inh [1] of -2.425%, an ML-2 %inh [2] of 2.035% and an MV4-11 %inh [3] of -1.012%. It also gave an MOLM-13 %inh [4] of -1.234%, an M07e %inh [5] of -2.16% and a CMS %inh [6] of 1.385%. For the same molecule, the U937 %inh [7] was -1.69% and the CMK %inh [8] was 1.273%.
`COc1ccc2c(-c3ccnc(Nc4cccc(OC(F)(F)F)c4)n3)cnn2n1` [SJ000573232-1, U17838/93/4] gave a CHRF288-11 %inh [1] of 5.074%, an ML-2 %inh [2] of 8.399% and an MV4-11 %inh [3] of 0.503%. It also gave an MOLM-13 %inh [4] of -2.645%, an M07e %inh [5] of 3.247% and a CMS %inh [6] of 1.867%. It also gave a U937 %inh [7] of 2.538% and a CMK %inh [8] of -2.18%.
`CCOc1ccc2c(-c3ccnc(Nc4cc(OC)cc(C(F)(F)F)c4)n3)cnn2n1` [SJ000573233-1, U17838/82/6] showed a CHRF288-11 %inh [1] of 13.25%, an ML-2 %inh [2] of 0.4459% and an MV4-11 %inh [3] of 0.1159%. The MOLM-13 %inh [4] was -2.068%, the M07e %inh [5] was 5.562% and the CMS %inh [6] was 0.7407%. The U937 %inh [7] was 1.137% and the CMK %inh [8] was -2.522%.
Molecule `Clc1ccc(CNc2nccc(-c3cnn4ncccc34)n2)cc1` [SJ000573234-1, U16767/129/1] has a CHRF288-11 %inh [1] of 14.43%, an ML-2 %inh [2] of 6.981% and an MV4-11 %inh [3] of 36.98%. It also gave an MOLM-13 %inh [4] of 8.357%, an M07e %inh [5] of 7.216% and a CMS %inh [6] of 12.69%. The U937 %inh [7] was 20.4% and the CMK %inh [8] was 3.942%.
Work on `CN1CCC(n2cnc(-c3ccc(F)cc3)c2-c2ccnc(Nc3ccccc3)n2)CC1` [SJ000573236-1, TG19207-284A1] yielded a CHRF288-11 %inh [1] of 30.13%, an ML-2 %inh [2] of 9.737% and an MV4-11 %inh [3] of 26.4%. It also gave an MOLM-13 %inh [4] of 50.36%, an M07e %inh [5] of 7.373% and a CMS %inh [6] of 10.11%. For the same molecule, the U937 %inh [7] was 6.434% and the CMK %inh [8] was 43.62%.
Molecule `Cc1nn(C)c2cc(N(C)c3ccnc(Nc4cccc(S(N)(=O)=O)c4)n3)ccc12` [SJ000573237-1, U17574/1/1] has a CHRF288-11 %inh [1] of 20.72%, an ML-2 %inh [2] of 1.956% and an MV4-11 %inh [3] of 42.73%. It also gave an MOLM-13 %inh [4] of 82.12%, an M07e %inh [5] of 4.667% and a CMS %inh [6] of 12.43%. It also gave a U937 %inh [7] of 9.474% and a CMK %inh [8] of 54.18%.
In the case of `CN(C)CCNC(=O)Nc1ccc(N(C)c2ccnc(Nc3ccc(CS(C)(=O)=O)cc3)n2)cc1` [SJ000573239-1, U17983/95/3], the CHRF288-11 %inh [1] is reported as 29.73%, the ML-2 %inh [2] is reported as 15.37% and the MV4-11 %inh [3] is reported as 73.54%. The MOLM-13 %inh [4] was 92.53%, the M07e %inh [5] was 0.06927% and the CMS %inh [6] was -0.9741%. The U937 %inh [7] was -1.201% and the CMK %inh [8] was 26.79%.
`COc1ccc(CNC(=O)c2ccc(-c3cc(-c4nnc(C)o4)ccc3C)cc2)cc1` [SJ000573240-1, R5419/62/2] gave a CHRF288-11 %inh [1] of 2.517%, an ML-2 %inh [2] of 2.422% and an MV4-11 %inh [3] of -0.02622%. For the same molecule, the MOLM-13 %inh [4] was 2.636%, the M07e %inh [5] was 1.245% and the CMS %inh [6] was -0.9608%. For the same molecule, the U937 %inh [7] was 0.2137% and the CMK %inh [8] was -2.585%.
